Here are results for two compounds from paper PMC6434189, “Peperomin E and its orally bioavailable analog induce oxidative stress-mediated apoptosis of acute myeloid leukemia progenitor cells by targeting thioredoxin reductase” (Redox Biology, 2019).

In data set [1] the test system is KG-1a CD34+ cells. Kind of data set: Intracellular ROS measurement (DCFH-DA / DHE). It counts as cell-based, human. Particulars: 6 μM; blocked by NAC pretreatment. On the procedure: KG-1a CD34^+ cells and other sorted primary APCs (5 × 10^5) were plated in FBS-free IMDM medium in 12-well plates (Corning) and were treated with 5 μM of Ara-C and 6 μM PepE or DMAPE in the presence or absence of 5 mM NAC for 2 h. The ROS indicator DCFH-DA (10 μM) or DHE (10 μM) in fresh FBS-free medium was added to each well, and further incubated in the dark for 30 min at 37 °C. The cells were visualized and photographed under an Olympus inverted fluorescence microscope IX-73 (Tokyo, Japan) with Metamorph software (Molecular Devices, Downingtown, PA, USA).

For data set [2], the system named is CD34+ NBM cells and hBMSCs. Kind of data set: CCK-8 cell viability assay on normal CD34+ NBM cells and hBMSCs. As to conditions: 48 h; for toxicity on control CD34+ NBM cells and hBMSCs: 6 μM; for effects on NBM and hBMSC cells: 12 μM. It counts as cell-based, human. As for the experimental part:
The mononuclear cells were further enriched for CD34 positive cells using the MACS CD34 MicroBead kit following the manufacturer's protocol. Enriched CD34 cell-purity was measured by flow cytometry-based quantification of cells stained using an anti-CD34-FITC antigen. Isolated CD34^+ cells were pre-incubated in the IMDM-based serum-free media for 1 h before the addition of drugs. PepE was dissolved in DMSO to make a 100 mM stock solution and stored in aliquots at – 20 °C. The 100 mM stock solution was diluted with DMSO to 10 mM and then diluted with PBS to 1 mM before treating the cells at the indicated concentrations. DMAPE and Ara-C were diluted in PBS to 1 mM concentration before use.
Unless otherwise mentioned, 2 × 10^4 cells were seeded at 96-well plates (Corning, New York, USA) in the IMDM-based serum-free media for 1 h. Then, the cells were incubated with different concentrations of PepE and DMAPE at 37 °C in a 5% CO2 incubator for 48 h. At the end of the treatment, 10 μL CCK-8 solution was added to each well and incubated for an additional 2 h at 37 °C, and the absorbance at 450 nm was measured with a microplate reader (Thermo Scientific, Multiskan GO, Finland). Inhibition ratio (%) was calculated as [(absorbance of control − absorbance of the test sample)/absorbance of control] x 100%.

Data set [3] has as its target T1, TrxR1 in KG-1a CD34+ cells (Homo sapiens, UniProt Q16881).
T1 construct: image TrxR activity in intact isolated KG-1a CD34^+ cells; endogenous in cells; host or cells: KG-1a CD34+ cells
T1 sequence (Q16881 1-499 isoform Q16881-5): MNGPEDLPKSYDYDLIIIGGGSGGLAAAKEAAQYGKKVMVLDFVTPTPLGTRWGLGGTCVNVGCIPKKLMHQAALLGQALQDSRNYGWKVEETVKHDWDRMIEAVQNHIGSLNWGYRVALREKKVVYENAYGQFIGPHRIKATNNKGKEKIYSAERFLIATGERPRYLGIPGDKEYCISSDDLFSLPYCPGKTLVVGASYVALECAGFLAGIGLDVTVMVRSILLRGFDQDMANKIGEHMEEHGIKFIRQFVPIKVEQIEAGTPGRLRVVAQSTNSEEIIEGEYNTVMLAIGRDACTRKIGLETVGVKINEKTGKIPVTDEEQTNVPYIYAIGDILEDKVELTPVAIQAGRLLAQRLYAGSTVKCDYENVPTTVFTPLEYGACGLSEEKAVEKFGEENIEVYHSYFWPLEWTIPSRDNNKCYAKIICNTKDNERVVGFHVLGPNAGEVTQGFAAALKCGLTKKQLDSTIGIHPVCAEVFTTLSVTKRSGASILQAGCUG
Kind of data set: Imaging TrxR1 activity in cells with TR-green. The format is cell-based. Particulars: 2 and 6 μM, dose-dependent. On the procedure: The specific fluorescence probe of TrxR – TR-green was employed to image TrxR activity in intact isolated KG-1a CD34^+ cells using previously published methods. Briefly, KG-1a CD34^+ cells (5 × 10^5) were incubated with 2 μM and 6 μM PepE or DMAPE (Previously reported TrxR1 inhibitor Parthenolide was used as the positive control, 0.1% DMSO was used as the negative control) in 6-well plates for 12 h, then 10 μM TR-green was added to each plate and incubated at 37 °C for 3 h. Fluorescence and brightfield images were captured using an inverted fluorescence microscope IX-73 (Olympus) with Metamorph software (Molecular Devices).

The subject of data set [4] is KG-1a CD34+ cells. Kind of data set: Annexin V-FITC/PI apoptosis assay. As to conditions: 6 μM; for cell apoptosis (early + late): 12 h; for apoptotic population (early + late): 24 h. The format is cell-based, human. An excerpt: The cells were harvested and washed twice with PBS. The apoptotic cells, necrotic cells, and live cells were identified by PI and Annexin V-FITC staining assay following the manufacturer's instructions. Data were obtained and analyzed using a BD Accuri™ C6 flow cytometer (BD Biosciences, San Jose, CA, USA) with CellQuest software (BD Biosciences).

Data set [5] in a line: Pharmacokinetic study of DMAPE in rats. It counts as in vivo, Sprague–Dawley rats. Particulars: for MRT last: read-out: MRT 0-t; for MRT inf: read-out: MRT 0-∞. The source says:
The UFLC-MS/MS system consisted of a Prominence™ UFLC system (Shimadzu, Kyoto, Japan) coupled with a QTRAP™ 5500 MS/MS system (Applied Biosystems/MDS SCIEX, Foster City, CA, USA) and controlled by the Analyst 1.5.2 software. MS‐grade methanol and acetonitrile were purchased from Merck (Darmstadt, Germany). Ultra‐pure water was generated using a MilliQ™ direct water purification system (Merck–Millipore, Billerica, MA, USA). The mass spectra and chromatographic conditions, method validations, standard and sample preparation for simultaneous determination of DMAPE and its parent drug PepE in rat plasma are provided in the Additional method in Supplementary Materials.
Male Sprague–Dawley rats weighing 200 ± 20 g were supplied by the Qinglongshan Experimental Animal Breeding Company (Nanjing, China). The experiment protocol was approved by the Animal Ethics Committee of Nanjing University of Chinese Medicine (Nanjing, China). The rats were housed under controlled environmental conditions (temperature 25 ± 2 °C, relative humidity 50 ± 10%) with free access to standard laboratory food and water. Before drug administration, the rats were randomly divided into two groups (eight rats per group) and fasted for 12 h with access to water. DMAPE phosphate salt aqueous solution was i. g. (50 mg/kg) or i. v. (50 mg/kg) administrated. Blood samples were collected from the tail vein into heparinized Eppendorf tubes using lithium heparin‐containing microvettes. The plasma was obtained by centrifugation of the blood at 5000 rpm for 10 min and then frozen at −20 °C until analysis. Pharmacokinetic parameters were calculated using the DAS 2.1.1 software (Pharmacological Society of China, China) using non-compartmental analysis.

Where [6] appears, read: male, Sprague-Dawley, po, rat plasma, DMAPE 50 mg/kg intragastric.
The mark [7] stands for this setting: male, Sprague-Dawley, rat, plasma, po, 50 mg/kg, rat plasma, DMAPE 50 mg/kg intragastric.
Where [8] appears, read: male, Sprague-Dawley, rat plasma, DMAPE 50 mg/kg intravenous.

Where two headings read alike, the source gives them in different places.

One may read the AUC(0-inf) as the area under the concentration-time curve extrapolated to infinity. Higher therefore signals more exposure. For orientation: AUC(0-t) means exposure summed from dosing to a finite time, without extrapolation to infinity. Lower therefore signals low exposure. As usually defined, the Cmax is the peak of the concentration-time curve. By half-life is commonly meant the time in which the quantity being followed falls by half. A low value points to fast loss. What is called bioavailability is dose-corrected exposure relative to a reference, in per cent. The term Tmax denotes the time at which the peak concentration occurs. What is called clearance is the rate of elimination divided by the concentration. As to `COc1cc(C(c2cc(OC)c3c(c2)OCO3)[C@@H]2COC(=O)[C@H]2CN(C)CCO)cc2c1OCO2` [DMAPE, (2S,3S)-6-Methyl (hydroxyethyl) amino-2,6-dihydropeperomin E], the “ROS level by DCFH-DA staining” value in the data set on KG-1a CD34+ cells [1] is on record as “burst of ROS”. Besides, in data set [2], the “toxicity on control CD34+ NBM cells and hBMSCs” value is on record as “reduced toxicities”; the “effects on NBM and hBMSC cells” value was “relatively safe”. Further, the “TR-green fluorescence intensities (cellular TrxR1 activity)” value in data set [3] was “significant decrease”. In the data set on KG-1a CD34+ cells [4], the “cell apoptosis (early + late)” value was about 55% and the “apoptotic population (early + late)” value is recorded as about 90%. In data set [5] (setting [6]), this compound gave an AUC(0-inf) of 25400 ± 8950 ng·h/mL, an AUC(0-t) of 25200 ± 8960 ng·h/mL, a maximum concentration (Cmax) of 5760 ± 2510 ng/mL and a half-life of 4.26 ± 1.63 h. In data set [5] (setting [6]), the MRT last stood at 4.9 ± 0.42 h and the MRT inf came to 5.29 ± 0.32 h. For the same compound, the bioavailability in data set [5] (male, Sprague-Dawley, rat, plasma, oral, 50 mg/kg, rat, DMAPE 50 mg/kg intragastric vs intravenous, read-out: Bioavailability, F) turned out to be 85%. In data set [5] (setting [7]), the Tmax is at most 0.85 h. Further, in data set [5] (setting [8]), the AUC(0-inf) was found to be 30000 ± 7010 ng·h/mL, the exposure AUC(0-t) was found to be 29900 ± 7070 ng·h/mL, the Cmax worked out at 21700 ± 3590 ng/mL and the clearance was 29 mL/min/kg. In addition, in data set [5] (setting [8]), the half-life was 4.33 ± 1.77 h, the MRT last amounted to 2.61 ± 0.86 h and the MRT inf came to 2.73 ± 0.85 h. This compound displayed a CL in data set [5] (rat plasma, DMAPE 50 mg/kg intragastric) of 35.7 ± 10.2 mL/min/kg.
With `C=C1C(=O)OC[C@H]1C(c1cc(OC)c2c(c1)OCO2)c1cc(OC)c2c(c1)OCO2` [PepE, Peperomin E], the “ROS level by DCFH-DA staining” value with KG-1a CD34+ cells [1] was “burst of ROS”. In data set [2], the “toxicity on control CD34+ NBM cells and hBMSCs” value was “reduced toxicities”; the “effects on NBM and hBMSC cells” value was “modest effects”. In addition, in data set [3], the “TR-green fluorescence intensities (cellular TrxR1 activity)” value was “significant decrease”. In the data set on KG-1a CD34+ cells [4], the “cell apoptosis (early + late)” value is given as about 65% and the “apoptotic population (early + late)” value is about 85%. In data set [5] (setting [6]), this compound showed a total exposure AUC(0-inf) of 10700 ± 2930 ng·h/mL, an exposure AUC(0-t) of 10600 ± 2930 ng·h/mL, a Cmax of 2300 ± 270 ng/mL and a half-life of 7.02 ± 1.3 h. In data set [5] (setting [6]), the MRT last amounted to 7.32 ± 0.82 h and the MRT inf is 7.75 ± 0.74 h. Moreover, in data set [5] (male, Sprague-Dawley, rat, plasma, iv, 50 mg/kg, rat plasma, DMAPE 50 mg/kg intravenous), the Tmax was found to be 0.21 ± 0.17 h. Besides, the Tmax in data set [5] (setting [7]) is at most 0.85 h. In data set [5] (setting [8]), this compound had a total exposure AUC(0-inf) of 11400 ± 3520 ng·h/mL, an AUC(0-t) of 11300 ± 3520 ng·h/mL, a Cmax of 8630 ± 2040 ng/mL and a clearance of 77.5 mL/min/kg. For the same compound, in data set [5] (setting [8]), the half-life is 8.89 ± 4.8 h, the MRT last worked out at 3.91 ± 1.4 h and the MRT inf was 4.64 ± 1.88 h.
